Results from PubChem BioAssay AID256 (DTP/NCI, 2004).
Where “and” joins values, the source holds several entries; their conditions need not be identical. Equal values may be shown once. Toxic doses and inconclusive results are not listed. Rule for the calls: active = survival T/C of 150% or more; inactive = T/C below 125% in these data.

Tested on: CD2F1 mice, L1210 leukemia ip, survival T/C
Test: NCI In Vivo Anticancer Drug Screen. Data for tumor model L1210 Leukemia (intraperitoneal) in CD2F1 (CDF1) mice
Settings: endpoint: mean survival time, higher = longer survival
Summary of the method: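 Read-out first: treated-group measurement over vehicle-control measurement, expressed as a ratio. Animals bore a transplanted tumor line and were dosed with compound or vehicle.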

[1] = dose: 100.0 mg/kg/injection, schedule: Q01DX009 (ip), vehicle: saline
[2] = dose: 200.0 mg/kg/injection, schedule: Q01DX001 (ip), vehicle: saline
[3] = dose: 200.0 mg/kg/injection, schedule: Q04DX003 (ip), vehicle: saline
[4] = dose: 100.0 mg/kg/injection, schedule: Q04DX003 (ip), vehicle: saline with Tween-80
[5] = dose: 100.0 mg/kg/injection, schedule: Q01DX001 (ip), vehicle: saline with Tween-80
[6] = dose: 200.0 mg/kg/injection, schedule: Q01DX001 (ip), vehicle: saline with Tween-80
[7] = dose: 400.0 mg/kg/injection, schedule: Q01DX001 (ip), vehicle: saline with Tween-80
[8] = dose: 100.0 mg/kg/injection, schedule: Q01DX001 (ip), vehicle: saline
[9] = dose: 100.0 mg/kg/injection, schedule: Q04DX003 (ip), vehicle: saline
[10] = dose: 200.0 mg/kg/injection, schedule: Q01DX009 (ip), vehicle: saline
[11] = dose: 400.0 mg/kg/injection, schedule: Q01DX001 (ip), vehicle: saline
[12] = dose: 400.0 mg/kg/injection, schedule: Q01DX009 (ip), vehicle: saline
[13] = dose: 400.0 mg/kg/injection, schedule: Q04DX003 (ip), vehicle: saline
[14] = dose: 25.0 mg/kg/injection, schedule: Q04DX003 (ip), vehicle: saline
[15] = dose: 50.0 mg/kg/injection, schedule: Q04DX003 (ip), vehicle: saline
[16] = dose: 200.0 mg/kg/injection, schedule: Q04DX003 (ip), vehicle: saline with Tween-80
[17] = dose: 400.0 mg/kg/injection, schedule: Q04DX003 (ip), vehicle: saline with Tween-80
[18] = dose: 25.0 mg/kg/injection, schedule: Q01DX009 (ip), vehicle: saline with Tween-80
[19] = dose: 50.0 mg/kg/injection, schedule: Q01DX009 (ip), vehicle: saline with Tween-80
[20] = dose: 100.0 mg/kg/injection, schedule: Q01DX009 (ip), vehicle: saline with Tween-80
[21] = dose: 200.0 mg/kg/injection, schedule: Q01DX009 (ip), vehicle: saline with Tween-80
[22] = dose: 400.0 mg/kg/injection, schedule: Q01DX009 (ip), vehicle: saline with Tween-80
[23] = dose: 12.5 mg/kg/injection, schedule: Q01DX005 (ip), vehicle: other
[24] = dose: 25.0 mg/kg/injection, schedule: Q01DX005 (ip), vehicle: other
[25] = dose: 50.0 mg/kg/injection, schedule: Q01DX005 (ip), vehicle: other
[26] = dose: 100.0 mg/kg/injection, schedule: Q01DX005 (ip), vehicle: other
[27] = dose: 200.0 mg/kg/injection, schedule: Q01DX005 (ip), vehicle: other

Measured: T/C

CN(CCCOS(C)(=O)=O)CCCOS(C)(=O)=O
inactive: dose: 6.3 mg/kg/injection, schedule: Q01DX009 (ip), vehicle: saline 123 % of control | dose: 6.3 mg/kg/injection, schedule: Q04DX003 (ip), vehicle: saline 117 % of control and 119 % of control and 109 % of control | dose: 8.4 mg/kg/injection, schedule: Q01DX009 (oral), vehicle: saline 104 % of control | dose: 12.5 mg/kg/injection, schedule: Q01DX001 (ip), vehicle: saline 108 % of control | dose: 39.0 mg/kg/injection, schedule: Q01DX009 (oral), vehicle: saline 121 % of control | dose: 65.0 mg/kg/injection, schedule: Q01DX001 (oral), vehicle: saline 104 % of control | [1] 87 % of control and 105 % of control and 93 % of control | dose: 108.0 mg/kg/injection, schedule: Q01DX001 (oral), vehicle: saline 102 % of control | [2] 118 % of control | [3] 87 % of control and 88 % of control | dose: 300.0 mg/kg/injection, schedule: Q01DX001 (oral), vehicle: saline 114 % of control

COC1CCC2=C(C1)C(=O)CC1c3ccccc3CN21 (centres undefined)
inactive: [4] 97 % of control

c1ccc(Nc2ccc(N=Nc3nc4ccccc4s3)cc2)cc1
inactive: [5] 93 % of control | [6] 97 % of control | [7] 97 % of control

CC(=O)Nc1ccc2c(c1)C(=O)c1ccccc1-2
inactive: dose: 50.0 mg/kg/injection, schedule: Q01DX001 (ip), vehicle: saline 104 % of control | [8] 101 % of control | [1] 106 % of control | [9] 87 % of control | [2] 95 % of control | [10] 96 % of control | [3] 94 % of control | [11] 87 % of control | [12] 95 % of control | [13] 92 % of control

CCCOC(C(=O)OC1CCN(C)CC1)(c1ccccc1)c1ccccc1
inactive: dose: 12.5 mg/kg/injection, schedule: Q04DX003 (ip), vehicle: saline 108 % of control | [14] 102 % of control | [15] 97 % of control

CCC12OC3(CC)C4C(=O)OC1C1(CC)OC4(CC)C3C(=O)OC21
inactive: [8] 103 % of control | [9] 102 % of control | [2] 102 % of control | [3] 100 % of control | [11] 96 % of control | [13] 94 % of control

CN(C)CC(O)c1ccc(O)c(O)c1 (centres undefined)
inactive: [9] 115 % of control | [3] 115 % of control | [13] 103 % of control

N#CCCc1c(O)ccc2ccccc12
inactive: [4] 86 % of control | [16] 92 % of control | [17] 86 % of control

CC1=C2C(=O)[C@H]3[C@@H](CC=C4C[C@@H](O)CC[C@@]43C)[C@@H]2CC[C@]12O[C@@H]1C[C@H](C)CN[C@H]1[C@H]2C
inactive: dose: 12.5 mg/kg/injection, schedule: Q01DX009 (ip), vehicle: saline with Tween-80 100 % of control | [18] 93 % of control | [19] 91 % of control | [6] 91 % of control | [7] 88 % of control

CCC(CC)N=C(N)N
inactive: [18] 100 % of control | [14] 100 % of control | [19] 93 % of control | [15] 97 % of control | [20] 98 % of control | [9] 94 % of control

CC(=O)Nc1ncc(C)s1
inactive: [20] 102 % of control | [4] 97 % of control | [21] 104 % of control | [16] 101 % of control | [22] 95 % of control | [17] 101 % of control

CCOC(=O)Nc1cccc2c1-c1ccccc1/C2=N\NC(N)=S
inactive: dose: 50.0 mg/kg/injection, schedule: Q01DX001 (ip), vehicle: carboxymethylcellulose (CMC) 102 % of control | dose: 100.0 mg/kg/injection, schedule: Q01DX001 (ip), vehicle: carboxymethylcellulose (CMC) 104 % of control | dose: 200.0 mg/kg/injection, schedule: Q01DX001 (ip), vehicle: carboxymethylcellulose (CMC) 98 % of control | dose: 400.0 mg/kg/injection, schedule: Q01DX001 (ip), vehicle: carboxymethylcellulose (CMC) 98 % of control

C[N+](C)(C)CSSC[N+](C)(C)C
inactive: dose: 12.5 mg/kg/injection, schedule: Q04DX002 (ip), vehicle: saline 96 % of control | dose: 25.0 mg/kg/injection, schedule: Q04DX002 (ip), vehicle: saline 96 % of control | dose: 50.0 mg/kg/injection, schedule: Q04DX002 (ip), vehicle: saline 103 % of control

Cc1ccc([N+](=O)[O-])cc1NC(=O)Oc1ccc(Cl)cc1Cl
inactive: [19] 102 % of control | [20] 103 % of control

COn1c(-c2ccccc2)nc2c1C(=O)N(C)CN2C
inactive: [23] 96 % of control | [24] 96 % of control | [25] 96 % of control | [26] 95 % of control | [27] 96 % of control

CCOC(=O)C(OCC)c1ccccc1 (centres undefined)
inactive: [20] 105 % of control | [21] 101 % of control | [22] 95 % of control

FC(F)(F)/C([S-])=C(/[S-])C(F)(F)F.[Fe].[c-]1[c-][c-][cH-][c-]1
inactive: dose: 75.0 mg/kg/injection, schedule: Q01DX001 (ip), vehicle: other 105 % of control | dose: 150.0 mg/kg/injection, schedule: Q01DX001 (ip), vehicle: other 100 % of control

Cc1cc([N+](=O)[O-])c2ccccc2[n+]1[O-]
inactive: [4] 100 % of control

CC(=O)NCCNC(C)=O
inactive: [9] 91 % of control | [3] 100 % of control | [13] 91 % of control

CS(=O)(=O)OC1C(OC(=O)OCc2ccccc2)C2COC(O2)C1OC(=O)OCc1ccccc1 (centres undefined)
inactive: [20] 92 % of control | [21] 92 % of control | [22] 89 % of control

COc1ccc(/C=C2/Cc3cccc4c([N+](=O)[O-])ccc2c34)cc1
inactive: [5] 89 % of control | [6] 86 % of control | [7] 102 % of control

Cn1c(=O)[nH]c2nc(-c3ccccc3)[nH]c2c1=O
inactive: [23] 89 % of control | [24] 87 % of control | [25] 86 % of control | [26] 86 % of control | [27] 87 % of control

O=[N+]([O-])c1ccc(OCCCBr)cc1
inactive: [4] 91 % of control | [16] 91 % of control | [17] 91 % of control

C/C(=C\CC(=O)C/C=C(\C)CCCC(C)CCCC(C)CCCC(C)C)CCCC(C)CCCC(C)CCCC(C)C (centres undefined)
inactive: dose: 100.0 mg/kg/injection, schedule: Q04DX002 (ip), vehicle: saline with Tween-80 103 % of control | dose: 200.0 mg/kg/injection, schedule: Q04DX002 (ip), vehicle: saline with Tween-80 103 % of control | dose: 400.0 mg/kg/injection, schedule: Q04DX002 (ip), vehicle: saline with Tween-80 96 % of control

Clc1ccc(CN2CN(Cc3ccc(Cl)cc3)CN(Cc3ccc(Cl)cc3)C2)cc1
inactive: [20] 95 % of control | [4] 100 % of control | [21] 97 % of control | [16] 97 % of control | [22] 100 % of control | [17] 97 % of control

C[n+]1csc2ccccc21
inactive: [5] 104 % of control | [20] 105 % of control | [4] 103 % of control | [6] 98 % of control | [21] 105 % of control | [16] 103 % of control | [7] 104 % of control | [22] 103 % of control | [17] 105 % of control

CSc1cc(C)c(O)c(CO)c1
inactive: dose: 100.0 mg/kg/injection, schedule: Q04DX003 (ip), vehicle: other 104 % of control | dose: 200.0 mg/kg/injection, schedule: Q04DX003 (ip), vehicle: other 98 % of control | dose: 400.0 mg/kg/injection, schedule: Q04DX003 (ip), vehicle: other 100 % of control

CCOC(=O)/C=C/C1CCCCC1
inactive: [19] 96 % of control | [20] 104 % of control | [21] 96 % of control

CC(=O)ON(C(C)=O)c1ccc(S(=O)(=O)c2ccc(N(OC(C)=O)C(C)=O)cc2)cc1
inactive: [1] 92 % of control | [10] 90 % of control | [12] 89 % of control

CCN(CC)c1ccc(-c2nc3ccccc3s2)cc1
inactive: dose: 50.0 mg/kg/injection, schedule: Q01DX009 (ip), vehicle: Klucel (hydroxypropylcellulose) (HPC) 106 % of control | dose: 100.0 mg/kg/injection, schedule: Q01DX009 (ip), vehicle: Klucel (hydroxypropylcellulose) (HPC) 98 % of control | dose: 200.0 mg/kg/injection, schedule: Q01DX009 (ip), vehicle: Klucel (hydroxypropylcellulose) (HPC) 102 % of control
